Inhibition and Activity data for one compound are collected here from ChEMBL document CHEMBL6103622 (J Med Chem, 2025).

Activity calls are given as the source filed them. The rule behind the calls is not given here.

In experiment [1] the target is T1, Macrophage colony-stimulating factor 1 receptor (Mus musculus) (UniProt P09581).
T1 sequence (whole entry): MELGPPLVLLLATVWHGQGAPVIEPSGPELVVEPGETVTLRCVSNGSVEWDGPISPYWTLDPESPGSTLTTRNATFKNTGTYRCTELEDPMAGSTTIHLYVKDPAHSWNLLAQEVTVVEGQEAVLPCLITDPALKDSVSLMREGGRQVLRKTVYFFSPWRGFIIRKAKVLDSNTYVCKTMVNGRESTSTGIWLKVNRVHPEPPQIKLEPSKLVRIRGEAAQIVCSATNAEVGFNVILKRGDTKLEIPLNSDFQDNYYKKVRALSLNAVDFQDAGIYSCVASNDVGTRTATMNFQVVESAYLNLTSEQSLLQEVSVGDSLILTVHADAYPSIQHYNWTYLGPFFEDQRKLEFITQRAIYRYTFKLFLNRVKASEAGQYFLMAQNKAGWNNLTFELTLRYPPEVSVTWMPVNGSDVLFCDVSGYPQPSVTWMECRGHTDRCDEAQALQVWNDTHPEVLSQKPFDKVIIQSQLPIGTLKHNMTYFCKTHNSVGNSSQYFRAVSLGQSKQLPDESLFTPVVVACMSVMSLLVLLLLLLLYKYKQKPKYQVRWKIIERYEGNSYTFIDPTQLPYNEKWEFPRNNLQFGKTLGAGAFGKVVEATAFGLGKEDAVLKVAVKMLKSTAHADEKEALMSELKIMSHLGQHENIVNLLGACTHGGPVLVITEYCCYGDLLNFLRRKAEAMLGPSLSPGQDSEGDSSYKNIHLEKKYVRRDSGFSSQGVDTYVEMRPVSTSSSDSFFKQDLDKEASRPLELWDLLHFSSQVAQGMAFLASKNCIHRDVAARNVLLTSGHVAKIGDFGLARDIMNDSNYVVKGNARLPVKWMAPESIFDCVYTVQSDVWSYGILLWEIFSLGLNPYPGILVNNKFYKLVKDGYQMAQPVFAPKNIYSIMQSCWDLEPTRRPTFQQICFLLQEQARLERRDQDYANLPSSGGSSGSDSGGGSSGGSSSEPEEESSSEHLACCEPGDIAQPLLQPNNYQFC
Description: Inhibition of CSF-1R signaling pathway activation in female C57BL/6 mouse BMDM cells assessed as reduction in AKT phosphorylation preincubated with compounds for 4 hrs followed by M-CSF stimulation and measured after 30 mins by Western blot analysis. The class given is cell-based. To be noted: dose 10-100 nM, time 4.5 hrs. A general note: In western blotting, separated proteins are transferred to a membrane and probed.

The test system of experiment [2] is Colorectal cancer organoid. Nature of the experiment: Antitumor activity against patient derived CRC organoids assessed as change in morphology of organoids at 10 to 100 nM incubated for 72 hrs. The class given is functional, tissue-based. As to conditions: Homo sapiens, Colorectum, dose 10-100 nM.
A further experiment has as its system MC-38. Description: Antitumor activity against mouse MC38 cells allografted in C57BL/6 mouse model assessed as reduction in tumor weight at 10 to 20 mg/kg, ip administered once daily for 14 days. The class given is functional, organism-based. To be noted: dose 10-20 mg/kg, time 14.0 day.
In experiment [3] the target is T1, Macrophage colony-stimulating factor 1 receptor (Mus musculus). Nature of the experiment: Inhibition of CSF-1R signaling pathway activation in female C57BL/6 mouse BMDM cells assessed as reduction in AKT phosphorylation at Ser473 residue at 100 nM preincubated with compounds for 4 hrs followed by M-CSF stimulation and measured after 30 mins by Western blot analysis. Format: cell-based. To be noted: time 4.5 hrs.

As for `Cc1nc(NC(=O)N[C@@H]2CCCC[C@H]2O)ccc1Oc1c[nH]c2ncc(Cl)cc12`, the inhibition result in experiment [1] was “Dose-dependent-effect”. The result in experiment [2] was inactive. The Activity result with MC-38 is “Active; Lower Tumor Weight Observed Than That Of Plx3397 Treated Group”. The inhibition result in experiment [3] was “Active”.
